The values that follow come from patent US7074789B2, “Kinase inhibitors” (Amgen Inc., priority 1999, dated 2006).

What all share (format): biochemical
In test [1] the target is T1, EGFR (Homo sapiens, UniProt P00533).
T1 construct: Kinases are expressed as either kinase domains or full length constructs; made in house
The experiment in a line: Kinase inhibition assay (33P transfer), EGFR. The note with it: Table 2, kinase inhibition class; read-out: EGFR-1. Summed up:
(§1)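 Each enzyme, purified to near homogeneity by affinity chromatography, was incubated with ATP carrying 33P and a substrate polymer fixed to the plate. Unbound label was removed with dilute phosphoric acid (0.5%) before adding scintillant and counting. Potency is given as the compound level cutting label uptake by 50%.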

Test [2] deals with T2, FGFR1 (Homo sapiens, UniProt P11362).
T2 construct: Kinases are expressed as either kinase domains or full length constructs; made in house
T2 sequence (P11362 22-822, species assumed): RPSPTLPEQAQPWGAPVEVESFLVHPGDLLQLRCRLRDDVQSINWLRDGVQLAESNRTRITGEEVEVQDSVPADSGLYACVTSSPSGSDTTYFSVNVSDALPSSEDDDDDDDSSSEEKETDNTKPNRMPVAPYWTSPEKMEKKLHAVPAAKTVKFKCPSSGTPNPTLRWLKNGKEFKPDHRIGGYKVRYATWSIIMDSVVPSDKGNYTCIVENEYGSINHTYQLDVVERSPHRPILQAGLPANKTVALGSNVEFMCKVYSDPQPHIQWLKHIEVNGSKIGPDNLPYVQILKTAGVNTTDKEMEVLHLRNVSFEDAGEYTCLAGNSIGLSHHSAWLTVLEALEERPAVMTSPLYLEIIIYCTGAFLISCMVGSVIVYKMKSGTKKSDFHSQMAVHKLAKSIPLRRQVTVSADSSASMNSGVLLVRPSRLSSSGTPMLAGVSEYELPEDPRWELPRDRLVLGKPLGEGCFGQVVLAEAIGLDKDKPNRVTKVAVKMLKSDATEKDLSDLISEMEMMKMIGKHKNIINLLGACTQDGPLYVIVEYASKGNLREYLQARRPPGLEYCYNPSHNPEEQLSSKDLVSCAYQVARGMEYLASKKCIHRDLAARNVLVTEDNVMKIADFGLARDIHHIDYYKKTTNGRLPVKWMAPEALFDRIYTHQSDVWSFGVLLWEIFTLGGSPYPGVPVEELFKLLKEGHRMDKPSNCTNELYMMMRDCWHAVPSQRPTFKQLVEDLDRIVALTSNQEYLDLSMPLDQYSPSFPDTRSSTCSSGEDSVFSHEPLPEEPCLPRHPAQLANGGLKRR
The test is described as follows: Kinase inhibition assay (33P transfer), FGFR1. The note with it: read-out: FGFR1-1.

Test [3] concerns the target T3, AKT (Homo sapiens, UniProt Q9Y243).
T3 construct: Kinases are expressed as either kinase domains or full length constructs; made in house
The experiment in a line: Kinase inhibition assay (33P transfer), AKT. Particulars: Table 2, kinase inhibition class; read-out: AKT3-1. A digest of the protocol:
(§2)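 Activity was read as 33P incorporation, counted by liquid scintillation after a 0.5% phosphoric acid wash, into poly(Glu,Tyr) 4:1 or poly(Arg,Ser) 3:1 substrates coated on plates. Enzymes were tagged (GST or polyHis) kinase domains or full-length proteins from bacterial or insect-cell expression, sometimes with regulatory polypeptides.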

Test [4] addresses T4, ErbB4 (Homo sapiens, UniProt Q15303).
T4 construct: Kinases are expressed as either kinase domains or full length constructs; made in house
The test is described as follows: Kinase inhibition assay (33P transfer), ErbB4. Particulars: read-out: ErbB4-1.

For test [5], the target named is T5, IGFR-1 (Homo sapiens, UniProt P08069).
T5 construct: Kinases are expressed as either kinase domains or full length constructs; made in house
The experiment in a line: Kinase inhibition assay (33P transfer), IGFR-1. Particulars: Table 2, kinase inhibition class.

Test [6] has as its target T6, Tek (Homo sapiens, UniProt Q02763).
T6 construct: Kinases are expressed as either kinase domains or full length constructs; made in house
The experiment in a line: Kinase inhibition assay (33P transfer), Tek. The note with it: read-out: Tek-1. A digest of the protocol:
as §1

Test [7] deals with T7, Lck (Homo sapiens, UniProt P06239).
T7 construct: Kinases are expressed as either kinase domains or full length constructs; made in house
T7 sequence (P06239 whole entry, species assumed, the tested form may be a part): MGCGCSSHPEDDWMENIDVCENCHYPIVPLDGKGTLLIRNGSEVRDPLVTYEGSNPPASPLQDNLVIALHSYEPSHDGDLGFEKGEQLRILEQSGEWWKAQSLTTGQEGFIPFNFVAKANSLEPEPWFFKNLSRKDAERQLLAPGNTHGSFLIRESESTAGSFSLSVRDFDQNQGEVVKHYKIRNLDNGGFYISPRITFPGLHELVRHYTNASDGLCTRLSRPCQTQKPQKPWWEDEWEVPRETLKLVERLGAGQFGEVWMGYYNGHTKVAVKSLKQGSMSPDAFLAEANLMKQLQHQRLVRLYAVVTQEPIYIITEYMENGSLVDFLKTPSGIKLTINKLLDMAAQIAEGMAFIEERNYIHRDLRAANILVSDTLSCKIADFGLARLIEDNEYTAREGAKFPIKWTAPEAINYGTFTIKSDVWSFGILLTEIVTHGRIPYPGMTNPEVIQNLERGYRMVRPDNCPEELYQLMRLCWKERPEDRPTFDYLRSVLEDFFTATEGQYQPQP
The experiment in a line: Kinase inhibition assay (33P transfer), Lck. Particulars: Table 3; read-out: Lck-1. A digest of the protocol:
as §2

Test [8] concerns the target T8, Src (Homo sapiens, UniProt P12931).
T8 construct: Kinases are expressed as either kinase domains or full length constructs; made in house
The test is described as follows: Kinase inhibition assay (33P transfer), Src. The note with it: Table 6, Src-1 kinase inhibition class. A digest of the protocol:
as §1

In test [9] the target is T9, Hck-1 (Homo sapiens, UniProt P08631).
T9 construct: Kinases are expressed as either kinase domains or full length constructs; made in house
T9 sequence (P08631 whole entry, the tested form may be a part): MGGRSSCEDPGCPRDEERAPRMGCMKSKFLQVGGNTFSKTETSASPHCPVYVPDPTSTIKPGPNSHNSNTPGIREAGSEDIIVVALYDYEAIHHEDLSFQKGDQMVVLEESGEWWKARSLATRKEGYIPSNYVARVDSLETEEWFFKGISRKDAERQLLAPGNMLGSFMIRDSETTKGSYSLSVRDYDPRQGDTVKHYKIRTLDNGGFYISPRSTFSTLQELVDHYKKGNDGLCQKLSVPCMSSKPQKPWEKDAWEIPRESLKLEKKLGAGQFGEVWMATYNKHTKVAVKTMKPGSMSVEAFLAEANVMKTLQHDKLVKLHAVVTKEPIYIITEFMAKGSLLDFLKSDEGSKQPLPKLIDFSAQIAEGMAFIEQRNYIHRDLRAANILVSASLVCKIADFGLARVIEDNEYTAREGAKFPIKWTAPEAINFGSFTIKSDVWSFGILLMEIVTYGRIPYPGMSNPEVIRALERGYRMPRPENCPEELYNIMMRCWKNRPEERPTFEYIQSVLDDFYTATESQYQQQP
The experiment in a line: Kinase inhibition assay (33P transfer), Hck. The note with it: Table 6, Hck-1 kinase inhibition class.

The target in test [10] is T10, EPHB4 (Homo sapiens, UniProt P54760).
T10 construct: Kinases are expressed as either kinase domains or full length constructs; made in house
T10 sequence (P54760 16-987): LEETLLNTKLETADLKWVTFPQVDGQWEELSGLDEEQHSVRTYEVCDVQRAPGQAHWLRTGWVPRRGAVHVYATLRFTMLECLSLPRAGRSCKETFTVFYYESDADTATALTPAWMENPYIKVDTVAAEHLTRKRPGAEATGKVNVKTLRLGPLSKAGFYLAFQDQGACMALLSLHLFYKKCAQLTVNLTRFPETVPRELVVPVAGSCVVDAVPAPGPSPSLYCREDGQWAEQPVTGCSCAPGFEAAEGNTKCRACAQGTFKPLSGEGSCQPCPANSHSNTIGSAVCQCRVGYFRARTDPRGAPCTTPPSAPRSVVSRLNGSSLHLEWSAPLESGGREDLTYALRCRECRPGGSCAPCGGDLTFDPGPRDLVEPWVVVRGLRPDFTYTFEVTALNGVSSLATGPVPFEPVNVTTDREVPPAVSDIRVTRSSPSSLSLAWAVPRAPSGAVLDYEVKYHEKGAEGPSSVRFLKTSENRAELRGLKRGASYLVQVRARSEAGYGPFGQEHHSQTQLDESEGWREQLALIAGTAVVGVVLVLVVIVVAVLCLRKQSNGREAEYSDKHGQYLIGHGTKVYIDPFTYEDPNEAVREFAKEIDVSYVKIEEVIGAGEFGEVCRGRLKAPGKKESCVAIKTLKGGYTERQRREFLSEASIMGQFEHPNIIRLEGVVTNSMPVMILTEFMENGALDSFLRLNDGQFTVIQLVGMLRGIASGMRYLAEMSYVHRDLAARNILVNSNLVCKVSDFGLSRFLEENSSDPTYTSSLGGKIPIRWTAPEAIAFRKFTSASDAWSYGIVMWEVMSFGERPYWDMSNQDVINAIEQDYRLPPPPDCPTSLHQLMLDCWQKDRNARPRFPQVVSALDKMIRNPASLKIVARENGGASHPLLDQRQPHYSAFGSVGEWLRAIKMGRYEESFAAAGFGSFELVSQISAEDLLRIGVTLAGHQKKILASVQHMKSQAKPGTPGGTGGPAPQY
The test is described as follows: Kinase inhibition assay (33P transfer), EPHB4. The note with it: read-out: EPHB4-1.

Test [11] addresses T11, c-Met (Homo sapiens, UniProt P08581).
T11 construct: Kinases are expressed as either kinase domains or full length constructs; made in house
The experiment in a line: Kinase inhibition assay (33P transfer), c-Met. The note with it: Table 2, kinase inhibition class; read-out: Met-1. Summed up: as §1

The target in test [12] is T12, PDGFRB (Homo sapiens, UniProt P09619).
T12 construct: Kinases are expressed as either kinase domains or full length constructs; made in house
The experiment in a line: Kinase inhibition assay (33P transfer), PDGFRB. The note with it: read-out: PDGFRB-1.

The target of test [13] is T13, Flt-1 (Homo sapiens, UniProt P17948).
T13 construct: Kinases are expressed as either kinase domains or full length constructs; made in house
T13 sequence (P17948 27-1338, species assumed): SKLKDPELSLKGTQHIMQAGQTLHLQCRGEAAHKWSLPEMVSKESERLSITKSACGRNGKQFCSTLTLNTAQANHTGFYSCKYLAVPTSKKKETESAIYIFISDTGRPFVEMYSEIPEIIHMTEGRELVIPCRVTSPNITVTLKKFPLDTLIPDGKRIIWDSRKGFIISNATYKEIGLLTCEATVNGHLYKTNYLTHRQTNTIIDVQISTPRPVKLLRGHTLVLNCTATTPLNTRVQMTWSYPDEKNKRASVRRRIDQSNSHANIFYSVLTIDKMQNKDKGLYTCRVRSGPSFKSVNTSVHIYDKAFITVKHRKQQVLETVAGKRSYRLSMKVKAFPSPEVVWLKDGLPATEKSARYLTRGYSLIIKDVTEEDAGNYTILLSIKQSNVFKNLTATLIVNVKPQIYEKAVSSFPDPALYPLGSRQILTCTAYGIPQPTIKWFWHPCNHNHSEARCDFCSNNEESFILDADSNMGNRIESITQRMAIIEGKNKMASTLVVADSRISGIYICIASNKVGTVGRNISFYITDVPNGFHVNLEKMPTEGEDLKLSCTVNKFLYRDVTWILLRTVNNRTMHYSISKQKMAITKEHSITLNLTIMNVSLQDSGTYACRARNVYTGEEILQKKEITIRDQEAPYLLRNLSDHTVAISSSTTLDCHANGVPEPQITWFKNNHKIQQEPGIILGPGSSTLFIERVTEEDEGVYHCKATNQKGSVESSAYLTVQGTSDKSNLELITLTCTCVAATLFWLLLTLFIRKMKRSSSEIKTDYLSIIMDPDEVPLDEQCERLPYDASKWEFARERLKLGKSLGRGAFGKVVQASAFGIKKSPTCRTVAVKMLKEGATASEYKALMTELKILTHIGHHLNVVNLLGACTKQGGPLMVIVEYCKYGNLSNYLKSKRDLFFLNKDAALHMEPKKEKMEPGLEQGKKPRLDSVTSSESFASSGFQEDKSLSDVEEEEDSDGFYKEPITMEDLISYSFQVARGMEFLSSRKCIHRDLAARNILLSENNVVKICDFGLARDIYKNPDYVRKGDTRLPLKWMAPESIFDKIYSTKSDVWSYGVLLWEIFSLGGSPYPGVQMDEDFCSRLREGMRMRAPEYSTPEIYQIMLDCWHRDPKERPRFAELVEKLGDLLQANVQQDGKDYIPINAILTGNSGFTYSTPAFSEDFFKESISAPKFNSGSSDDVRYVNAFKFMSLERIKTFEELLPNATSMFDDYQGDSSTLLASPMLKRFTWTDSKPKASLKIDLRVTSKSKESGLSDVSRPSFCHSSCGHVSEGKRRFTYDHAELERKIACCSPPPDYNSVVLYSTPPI
The test is described as follows: Kinase inhibition assay (33P transfer), Flt-1. Summed up:
as §1

Test [14] concerns the target T14, Lyn (Homo sapiens, UniProt P07948).
T14 construct: Kinases are expressed as either kinase domains or full length constructs; made in house
The test is described as follows: Kinase inhibition assay (33P transfer), Lyn. The note with it: Table 6, Lyn-1 kinase inhibition class. Summed up: as §1

Test [15] deals with T15, Fyn (Homo sapiens, UniProt P06241).
T15 construct: Kinases are expressed as either kinase domains or full length constructs; made in house
T15 sequence (P06241 whole entry, species assumed, the tested form may be a part): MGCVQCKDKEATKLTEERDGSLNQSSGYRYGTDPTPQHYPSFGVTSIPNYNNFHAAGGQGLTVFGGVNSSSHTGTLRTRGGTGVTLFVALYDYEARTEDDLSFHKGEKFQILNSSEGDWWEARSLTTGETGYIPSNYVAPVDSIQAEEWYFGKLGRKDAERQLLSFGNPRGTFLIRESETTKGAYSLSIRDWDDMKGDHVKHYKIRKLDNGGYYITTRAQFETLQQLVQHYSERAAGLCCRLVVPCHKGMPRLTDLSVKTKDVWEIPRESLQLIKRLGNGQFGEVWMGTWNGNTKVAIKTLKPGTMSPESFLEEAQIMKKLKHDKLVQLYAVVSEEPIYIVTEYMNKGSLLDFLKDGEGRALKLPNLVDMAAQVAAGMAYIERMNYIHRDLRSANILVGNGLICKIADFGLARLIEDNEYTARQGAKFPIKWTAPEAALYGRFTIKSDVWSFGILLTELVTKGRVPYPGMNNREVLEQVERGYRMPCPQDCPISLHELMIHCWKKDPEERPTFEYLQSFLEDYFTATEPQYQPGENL
The test is described as follows: Kinase inhibition assay (33P transfer), Fyn. Particulars: read-out: Fyn-1. Summed up: as §1

T8 sequence (P12931 whole entry, species assumed, the tested form may be a part): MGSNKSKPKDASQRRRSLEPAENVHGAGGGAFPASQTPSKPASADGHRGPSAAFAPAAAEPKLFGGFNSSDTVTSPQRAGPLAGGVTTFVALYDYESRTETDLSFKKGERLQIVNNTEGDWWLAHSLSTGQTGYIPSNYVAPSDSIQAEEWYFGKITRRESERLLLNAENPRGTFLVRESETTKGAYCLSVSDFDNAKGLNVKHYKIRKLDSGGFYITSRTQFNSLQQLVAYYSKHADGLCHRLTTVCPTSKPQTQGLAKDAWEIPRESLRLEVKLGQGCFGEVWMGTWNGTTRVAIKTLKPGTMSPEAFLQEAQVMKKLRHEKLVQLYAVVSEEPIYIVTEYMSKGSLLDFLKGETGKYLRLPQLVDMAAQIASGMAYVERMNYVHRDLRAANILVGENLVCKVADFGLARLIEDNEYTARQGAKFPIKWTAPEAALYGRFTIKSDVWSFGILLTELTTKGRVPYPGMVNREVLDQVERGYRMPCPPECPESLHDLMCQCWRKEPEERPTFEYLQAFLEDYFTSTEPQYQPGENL
T14 sequence (P07948 whole entry, species assumed, the tested form may be a part): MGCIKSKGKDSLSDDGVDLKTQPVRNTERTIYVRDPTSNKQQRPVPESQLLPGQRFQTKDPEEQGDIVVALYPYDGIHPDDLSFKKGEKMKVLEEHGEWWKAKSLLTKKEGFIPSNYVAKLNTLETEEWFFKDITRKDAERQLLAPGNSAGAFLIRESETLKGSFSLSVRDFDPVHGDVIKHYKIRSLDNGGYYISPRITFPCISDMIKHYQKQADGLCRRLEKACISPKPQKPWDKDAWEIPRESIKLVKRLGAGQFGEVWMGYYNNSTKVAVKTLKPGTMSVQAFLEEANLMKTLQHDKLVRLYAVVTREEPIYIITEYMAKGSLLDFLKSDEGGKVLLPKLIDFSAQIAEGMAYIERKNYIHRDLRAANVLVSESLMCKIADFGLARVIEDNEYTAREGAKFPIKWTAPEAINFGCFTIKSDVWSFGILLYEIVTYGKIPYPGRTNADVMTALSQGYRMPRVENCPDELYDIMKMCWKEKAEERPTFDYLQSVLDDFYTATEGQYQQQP

Take `COc1cc(Nc2ncnc(N(c3ccc(Cl)cc3)c3nc4ccccc4[nH]3)n2)cc(OC)c1OC` [Compound 374]: the IC50 is below 0.794 µM in test [1]; below 0.794 µM in test [2]; above 8.93 µM in test [3]; 0.794 to 4.76 µM in test [4]; above 8.93 µM in test [5]; 0.794 to 4.76 µM in [6]. In addition, the IC50 in test [7] was below 0.794 µM; in [8], below 0.794 µM; in test [9], 6.95 to 8.93 µM; in [10] it was below 0.794 µM; in test [11], 0.794 to 4.76 µM; in test [12], 0.794 to 4.76 µM. The IC50 in test [13] was 0.794 to 4.76 µM; in test [14], below 0.794 µM; in test [15], 0.794 to 4.76 µM.
Turning to `COc1cc(Nc2ncnc(-n3c(Nc4ccc(C(C)C)cc4)nc4ccccc43)n2)cc(OC)c1OC` [Compound 388], the IC50 in test [1] was above 8.8 µM; in [2], 4.69 to 6.84 µM; in test [3], above 8.8 µM; in [4], above 8.8 µM; in test [5], above 8.8 µM; in test [6] it was above 8.8 µM. The IC50 is 0.782 to 4.69 µM in test [7]; above 8.8 µM in test [8]; above 8.8 µM in test [9]; above 8.8 µM in [10]; above 8.8 µM in [11]; 0.782 to 4.69 µM in test [12]. The IC50 in test [13] was above 8.8 µM; in test [14] it was 0.782 to 4.69 µM; in test [15], above 8.8 µM.
Consider `NC(=O)c1cccc(Nc2ncnc(-n3c(N)nc4ccccc43)n2)c1` [Compound 395], for which the IC50 is above 13 µM in [1]; below 1.15 µM in [2]; 10.1 to 13 µM in test [3]; above 13 µM in test [4]; 1.15 to 6.93 µM in test [5]; 1.15 to 6.93 µM in test [6]. Also, the IC50 is 6.93 to 10.1 µM in [7]; 10.1 to 13 µM in test [8]; above 13 µM in [9]; above 13 µM in test [10]; 1.15 to 6.93 µM in [11]; 1.15 to 6.93 µM in test [12]. Further, the IC50 was below 1.15 µM in [13], 10.1 to 13 µM in [14] and 6.93 to 10.1 µM in [15].
As for `NC(=O)c1ccc(Nc2ncnc(-n3c(N)nc4ccccc43)n2)cc1` [Compound 396], the IC50 in test [1] is 6.93 to 10.1 µM; in [2], below 1.15 µM; in test [3], 6.93 to 10.1 µM; in test [4], 1.15 to 6.93 µM; in test [5], below 1.15 µM; in [6] it was 1.15 to 6.93 µM. For the same compound, the IC50 is 1.15 to 6.93 µM in test [7]; above 13 µM in test [8]; 6.93 to 10.1 µM in [9]; 1.15 to 6.93 µM in test [10]; 1.15 to 6.93 µM in test [11]; 1.15 to 6.93 µM in test [12]. Also, the figures for the IC50 in test [13], in test [14] and in test [15] were below 1.15 µM, 1.15 to 6.93 µM and 1.15 to 6.93 µM, respectively.
In the case of `COC(=O)c1cccc(Nc2ncnc(Nc3cc(-c4ccco4)n[nH]3)n2)c1` [Compound 344], the IC50 is above 11.9 µM in test [1]; below 1.06 µM in [2]; above 11.9 µM in [3]; above 11.9 µM in test [4]; 1.06 to 6.36 µM in [5]; above 11.9 µM in [6]. The IC50 was 1.06 to 6.36 µM in test [7]; above 11.9 µM in test [8]; above 11.9 µM in [9]; 1.06 to 6.36 µM in test [10]; 1.06 to 6.36 µM in test [11]; 6.36 to 9.27 µM in test [12]. Besides, the IC50 in [13] was 6.36 to 9.27 µM; in test [14], above 11.9 µM; in [15] it was above 11.9 µM.
